Here are results for two compounds from patent publication US7314858B2, “Retrocyclins: antiviral and antimicrobial peptides” (priority 2001, dated 2008).

Structures are written as SMILES. “Also recorded” adds a separate entry of the source. Like-named read-outs stand apart in the source and are kept apart here. Where a SMILES comes first, the peptide text is derived from it. Bridges are numbered along the chain shown (N, C = ends).

Data set [1] deals with CD4+ PBMC. Particulars: for average number of cells: 20 μg/ml peptide, CD4+ PBMC; for cytotoxicity (trypan blue exclusion): 20 μg/ml, HIV-1-infected CD4+ PBMC.
Data set [2] has as its target T1, gp120 (LAV) (Human immunodeficiency virus type 1 group M subtype B, UniProt P03377).
T1 construct: Glycosylated HIV-1 gp120 (LAV) envelope glycoprotein; purchased Protein Sciences Corporation, Meriden, Conn; 2003-LAV
Briefly: Surface plasmon resonance binding. Details: species or system HIV-1. How it is done: FIG. 20. Binding to gp120. These binding isotherms were measured by surface plasmon resonance, using a biosensor chip that contained immobilized, recombinant gp120. Various concentrations of RC-100 and RC-101 (0.05 to 0.5 μg/ml) flowed over the biosensor chip between minutes 1 to 4, to allow the “on rates” to be measured. At 4 minutes, the peptide-containing solutions were replaced by peptide-free medium, to ascertain the “off-rates.”
(§1) Surface plasmon resonance. Recombinant human soluble CD4 (full-length 45 kDa glycosylated ectodomain) was produced by ExpresSF+S. frugiperda cells in serum-free medium (Protein Sciences Corporation, Meriden, Conn.). Glycosylated HIV-1 gp120 (LAV) envelope glycoprotein (Catalog No. 2003-LAV) was purchased from the same source. Recombinant HIV-1BaL was obtained through the AIDS Research and Reference Reagent Program, Division of AIDS, National Institute of Allergy and Infectious Disease, NIH.
(§2) Surface plasmon resonance (SPR) experiments were done with a Biacore 2000 system (Biacore, Inc., Piscataway, N.J.). The running buffer (pH 7.4) contained 10 mM HEPES, 150 mM NaCl, 3 mM EDTA and 0.005% polysorbate 20. The immobilized proteins (gp120-LAV and CD4) were dissolved at 20 μg/ml in 10 mM sodium acetate, pH 5.0 and immobilized on a Biacore CM5 sensor chip using the amine coupling method. The chip was activated by mixing 400 mM EDC (N-ethyl-N-(3-dimethylaminopropyl)-carbodiimide hydrochloride) and 100 mM N-hydroxysuccinimide. An immobilization level of −6000 response units (RU) was attained for each bound protein. Residual reactive groups on the chip surface were blocked using 1.0 Methanolamine/HCl, pH 8.5.
(§3) The flow cell chip used as a control lacked immobilized protein but was otherwise treated as above. Signals were corrected for nonspecific binding by subtracting the control signal. To regenerate the chip surface, bound ligands were removed with 10 mM HCl. Data were analyzed with BIAevaluation 3.1 software. Curve fitting was done with an assumption of 1:1 binding.
We previously reported that the protection against HIV-1 afforded by retrocyclin-1 and its analogs was correlated to their binding to gp120 and CD4. In those experiments, biosensor chips containing immobilized gp120 or CD4 were perfused with a 1 μg/ml solution of the peptides, and binding was measured by surface plasmon resonance. When we compared binding by retrocyclin-1 and RC-101 in exactly the same manner, we saw very little difference between them. FIG. 20 compares the binding of lower concentrations of these peptides, ranging from 0.05 to 0.5 μg/ml, to immobilized gp120 LAV. From these binding isotherms, and from similar studies performed with biosensor chips containing immobilized gp120 BaL or CD4, the binding constants shown in Table 7 were obtained. […]
Background: Surface plasmon resonance follows binding to a sensor surface in real time, without labels.

For data set [3], the target named is gp120 (BaL). Briefly: Surface plasmon resonance binding. More on the design: species or system HIV-1. Particulars: immobilized gp120(BaL).
Excerpt: as §1
as §2, with “An immobilization level of −6000 response units (RU) was attained for each bound protein.” left out
as §3
In those experiments, biosensor chips containing immobilized gp120 or CD4 were perfused with a 1 μg/ml solution of the peptides, and binding was measured by surface plasmon resonance. […] No binding studies were performed with gp120 preparations derived from non-B HIV-1 subtypes.

Data set [4] concerns HIV-1 strain JR-CSF. Put plainly: HIV-1 JR-CSF infection of CD4+ PBMC, p24 antigen ELISA. The class given is cell-based. As to conditions: JR-CSF (R5), peptide 10-20 μg/ml. The procedure: FIG. 5A-C. Anti-HIV-1 activity of retrocyclin. Two strains of HIV-1 and two types of human target cells were used. The IIIB strain is T-cell tropic (X4) and utilizes the CXCR4 co-receptor for entry; the JR-CSF strain is M-tropic (R5) and uses CCR5 for entry. PBMC signifies CD4^+-selected peripheral blood mononuclear cells. […] (A) Two concentrations of retrocyclin (2 μg/ml, 20 μg/ml), 20 μg/ml of the Rhesus circular defensin “RTD-1”, and 20 μg/ml of a horseshoe crab-derived peptide “T140”, reported to only prevent X4 infections, were tested in antiviral assays of against strain IIIB in H9 cells (n=2-6 per peptide; error bars indicate SEM). (B) To confirm our results with primary human cells, similar assays were performed utilizing IIIB virus and CD4^+ PBMC or (C) JR-CSF virus and CD4^+ PBMC. Peptides were not cytotoxic at indicated concentrations, measured by trypan blue exclusion. Average of duplicate experiments are reported for studies with PBMCs. Assay sensitivity=10 pg/ml.
Either HIV-1-permissive H9 cells were used as targets, or primary CD4^+ lymphocytes from HIV-1-seronegative donors generated from freshly purified peripheral blood mononuclear cells (PBMC) stimulated with a CD3-CD8 bispecific monoclonal antibody. After approximately 7 days, when 98% of these cells co-expressed CD3 and CD4, they were infected with HIV-1 with or without retrocyclin or other test peptide. These cells were maintained in RPMI containing 10% FCS supplemented with 2 mM glutamine, 100 U of penicillin/ml, 10 μg of streptomycin/ml, and 50 U of interleukin 2/ml (R10-50 media).
The p24 assay results shown in FIG. 9 are on a logarithmic scale. A horizontal reference line that passes through 100 on the ordinate scale corresponds to […] of p24 antigen. Results from 3 experiments (each performed with PBMC from a different donor) are shown.
On the technique in general: In an ELISA, binding on a coated surface is turned into a signal by an enzyme label.

For data set [5], the system named is H9 cells. Briefly: Cytotoxicity by trypan blue exclusion. As to conditions: for cytotoxicity (trypan blue exclusion): 20 μg/ml, HIV-1-infected H9 cells.

`CC[C@H](C)[C@@H]1NC(=O)CNC(=O)[C@H](CCCNC(=N)N)NC(=O)CNC(=O)[C@@H]2CSSC[C@H](NC1=O)C(=O)N[C@@H](CCCNC(=N)N)C(=O)N[C@H]1CSSC[C@H](NC(=O)[C@H](CCCNC(=N)N)NC(=O)[C@@H]3CSSC[C@H](NC(=O)[C@H]([C@@H](C)CC)NC1=O)C(=O)NCC(=O)N[C@@H](CCCNC(=N)N)C(=O)NCC(=O)N[C@@H]([C@@H](C)CC)C(=O)N3)C(=O)N[C@@H]([C@@H](C)CC)C(=O)N2` [RC-100, Retrocyclin] (cyclo(GICRCICGRGICRCICGR); disulfide 3-16, 5-14, 7-12): the “average number of cells” value in data set [1] (IIIB) was determined as 1.68e+06 mL⁻¹; in data set [1] (JR-CSF), 1.58e+06 mL⁻¹; in data set [1] (no virus), 980000 mL⁻¹; in data set [5] (20 μg/ml peptide, H9, IIIB), 1.2e+06 mL⁻¹. Besides, the “cytotoxicity (trypan blue exclusion)” value in data set [1] and in data set [5] was “neither 20 μg/ml retrocyclin nor RC-101 were cytotoxic” in each case. Further, the dissociation rate constant (koff) (as a rule, a measure of how fast the partners let go of each other) in data set [2] was 0.00296 s⁻¹; in data set [3] it was 4.12 × 10^−3. In addition, the figures for the association rate constant (kon) in data set [2] and in data set [3] were 80300 M⁻¹ s⁻¹ and 14.1 × 10^4, respectively. The Kd – broadly, the free concentration of one partner at which half of the binding sites on the other are occupied at equilibrium, for simple one-to-one binding – in data set [3] was found to be 29.2 nM. In data set [4], the “inhibition of HIV-1 replication (p24)” value was “complete suppression; also recorded: uniformly protective”.
Regarding `CC[C@H](C)[C@@H]1NC(=O)CNC(=O)[C@H](CCCCN)NC(=O)CNC(=O)[C@@H]2CSSC[C@H](NC1=O)C(=O)N[C@@H](CCCNC(=N)N)C(=O)N[C@H]1CSSC[C@H](NC(=O)[C@H](CCCNC(=N)N)NC(=O)[C@@H]3CSSC[C@H](NC(=O)[C@H]([C@@H](C)CC)NC1=O)C(=O)NCC(=O)N[C@@H](CCCNC(=N)N)C(=O)NCC(=O)N[C@@H]([C@@H](C)CC)C(=O)N3)C(=O)N[C@@H]([C@@H](C)CC)C(=O)N2` [RC-101, R9K-Retrocyclin], the “cytotoxicity (trypan blue exclusion)” value in data set [1] is listed as “neither 20 μg/ml retrocyclin nor RC-101 were cytotoxic”. For the same compound, in data set [2], the koff amounted to 0.00304 s⁻¹ and the on-rate (kon) (commonly the rate constant with which the complex forms) amounted to 97200 M⁻¹ s⁻¹. For the same compound, in data set [3], binding was put at a Kd of 20.5 nM, the off-rate constant (koff) was 5.55 × 10^−3 and the kon is given as 27.0 × 10^4. In data set [4], the “inhibition of HIV-1 replication (p24)” value is “as active as retrocyclin”. The “cytotoxicity (trypan blue exclusion)” value in data set [5] is recorded as “neither 20 μg/ml retrocyclin nor RC-101 were cytotoxic”.
